From patent publication US6747033B2, “Fungicidal triazolopyrimid-7-ylideneamines” (BASF Aktiengesellschaft, priority 2000, dated 2004)
Like-named read-outs stand apart in the source and are kept apart here.

Key:
[1] = system: Pseudocercosporella herpotrichoides; experiment: In vitro fungicidal activity, Cereal eye spot (PSDCHE); format: cell-based; design: key: 0: None; 3: slight; 5: moderate; 7: severe; 9: complete; settings: 3-7 days of incubation
Experimental: (§1) Test compounds are dissolved in acetone to give concentrations of 25, 10 and 1 ppm and are added to individual cell Walls (24-cell-well plates, Corning), which were previously filled with a suspension of ground plates, Corning), which were previously filled with a suspension of ground fungal mycelium in a chemically defined growth medium. After 3-7 days of incubation, inhibition of […] growth is recorded using the following scale: The data obtained are shown in Table II. [table]

[2] = system: Blumeria graminis; experiment: In vivo fungicidal activity, Wheat powdery mildew (WPM); also: ranges in brackets are in %
[3] = system: Pyricularia grisea f. sp. oryzae; format: in vivo; settings: Rice Blast
[4] = system: Plasmopara viticola; experiment: In vivo fungicidal activity, Grape downy mildew (GDM); also: ranges in brackets are in %
[5] = system: Alternara solani; experiment: In vivo fungicidal activity, Tomato early blight (TEB); also: ranges in brackets are in %
[6] = system: Botrytis cinera; experiment: In vivo fungicidal activity, Pepper Botrytis (PB); also: ranges in brackets are in %
[7] = system: Venturia inaequalis; experiment: In vivo fungicidal activity, Apple Scab (AS); also: ranges in brackets are in %
[8] = system: Pythium ultimum; experiment: In vitro fungicidal activity, Fruit rot (PYTHUL); format: cell-based; design: key: 0: None; 3: slight; 5: moderate; 7: severe; 9: complete; settings: 3-7 days of incubation
Experimental: as §1

[9] = system: Rhizoctonia solani; experiment: In vitro fungicidal activity, Rice sheath blight (RHIZSO); format: cell-based; design: key: 0: None; 3: slight; 5: moderate; 7: severe; 9: complete; settings: 3-7 days of incubation
Experimental: as §1

[10] = system: Cercospora beticola; experiment: In vivo fungicidal activity, Sugar Beet Cercospora (SBC); also: ranges in brackets are in %

Molecule: CCn1cnn2c(=NC(C)C(F)(F)F)c(-c3c(F)cc(F)cc3F)c(Cl)nc12 (stereo not drawn) [Example 10]
- PSDCH inhibition of mycelial growth rating ([1]; 1 ppm): 0
- PSDCH inhibition of mycelial growth rating ([1]; 10 ppm): 0
- PSDCH inhibition of mycelial growth rating ([1]; 25 ppm): 0
- WPM disease control rating ([2]; 12.5 ppm spray): 0 (0)
- WPM disease control rating ([2]; 50 ppm spray): 0 (0)
- WPM disease control rating ([2]; 200 ppm spray): 0 (0)
- RB disease control rating ([3]; 12.5 ppm spray): 0 (0)
- RB disease control rating ([3]; 50 ppm spray): 4 (45-59)
- RB disease control rating ([3]; 200 ppm spray): 6 (75-89)
- GDM disease control rating ([4]; 12.5 ppm spray): 0 (0)
- GDM disease control rating ([4]; 50 ppm spray): 0 (0)
- GDM disease control rating ([4]; 200 ppm spray): 0 (0)
- TEB disease control rating ([5]; 12.5 ppm spray): 0 (0)
- TEB disease control rating ([5]; 50 ppm spray): 4 (45-59)
- TEB disease control rating ([5]; 200 ppm spray): 5 (60-74)
- PB disease control rating ([6]; 12.5 ppm spray): 4 (45-59)
- PB disease control rating ([6]; 50 ppm spray): 0 (0)
- PB disease control rating ([6]; 200 ppm spray): 0 (0)
- AS disease control rating ([7]; 12.5 ppm spray): 0 (0)
- AS disease control rating ([7]; 50 ppm spray): 0 (0)
- AS disease control rating ([7]; 200 ppm spray): 6 (75-89)
- PYTHU inhibition of mycelial growth rating ([8]; 1 ppm): 0
- PYTHU inhibition of mycelial growth rating ([8]; 10 ppm): 3
- PYTHU inhibition of mycelial growth rating ([8]; 25 ppm): 5
- RHIZSO inhibition of mycelial growth rating ([9]; 1 ppm): 0
- RHIZSO inhibition of mycelial growth rating ([9]; 10 ppm): 5
- RHIZSO inhibition of mycelial growth rating ([9]; 25 ppm): 5
- SBC disease control rating ([10]; 12.5 ppm spray): 3 (30-44)
- SBC disease control rating ([10]; 50 ppm spray): 6 (75-89)
- SBC disease control rating ([10]; 200 ppm spray): 6 (75-89)

Molecule: CCCn1cnn2c(=NC(C)C(F)(F)F)c(-c3c(F)cc(F)cc3F)c(Cl)nc12 (stereo not drawn) [Example 11]
- PSDCH inhibition of mycelial growth rating ([1]; 1 ppm): 0
- PSDCH inhibition of mycelial growth rating ([1]; 10 ppm): 0
- PSDCH inhibition of mycelial growth rating ([1]; 25 ppm): 0
- WPM disease control rating ([2]; 12.5 ppm spray): 0 (0)
- WPM disease control rating ([2]; 50 ppm spray): 0 (0)
- WPM disease control rating ([2]; 200 ppm spray): 0 (0)
- RB disease control rating ([3]; 12.5 ppm spray): 0 (0)
- RB disease control rating ([3]; 50 ppm spray): 3 (30-44)
- RB disease control rating ([3]; 200 ppm spray): 4 (45-59)
- GDM disease control rating ([4]; 12.5 ppm spray): 0 (0)
- GDM disease control rating ([4]; 50 ppm spray): 0 (0)
- GDM disease control rating ([4]; 200 ppm spray): 3 (30-44)
- TEB disease control rating ([5]; 12.5 ppm spray): 0 (0)
- TEB disease control rating ([5]; 50 ppm spray): 0 (0)
- TEB disease control rating ([5]; 200 ppm spray): 0 (0)
- PB disease control rating ([6]; 12.5 ppm spray): 0 (0)
- PB disease control rating ([6]; 50 ppm spray): 0 (0)
- PB disease control rating ([6]; 200 ppm spray): 0 (0)
- AS disease control rating ([7]; 12.5 ppm spray): 0 (0)
- AS disease control rating ([7]; 50 ppm spray): 6 (75-89)
- AS disease control rating ([7]; 200 ppm spray): 7 (90-95)
- PYTHU inhibition of mycelial growth rating ([8]; 1 ppm): 0
- PYTHU inhibition of mycelial growth rating ([8]; 10 ppm): 1
- PYTHU inhibition of mycelial growth rating ([8]; 25 ppm): 1
- RHIZSO inhibition of mycelial growth rating ([9]; 1 ppm): 0
- RHIZSO inhibition of mycelial growth rating ([9]; 10 ppm): 0
- RHIZSO inhibition of mycelial growth rating ([9]; 25 ppm): 0
- SBC disease control rating ([10]; 12.5 ppm spray): 0 (0)
- SBC disease control rating ([10]; 50 ppm spray): 0 (0)
- SBC disease control rating ([10]; 200 ppm spray): 3 (30-44)

Molecule: N-[5-chloro-3-methyl-6-(2,4,6-trifluorophenyl)-4H-[1,2,4]triazolo[1,5-α]pyrimidin-7-ylidene]-N-(2,2,2-trifluoroethyl)-amine [Example 1B]
- PSDCH inhibition of mycelial growth rating ([1]; 1 ppm): 0
- PSDCH inhibition of mycelial growth rating ([1]; 10 ppm): 1
- PSDCH inhibition of mycelial growth rating ([1]; 25 ppm): 3
- WPM disease control rating ([2]; 12.5 ppm spray): 0 (0)
- WPM disease control rating ([2]; 50 ppm spray): 0 (0)
- WPM disease control rating ([2]; 200 ppm spray): 0 (0)
- RB disease control rating ([3]; 12.5 ppm spray): 0 (0)
- RB disease control rating ([3]; 50 ppm spray): 0 (0)
- RB disease control rating ([3]; 200 ppm spray): 5 (60-74)
- GDM disease control rating ([4]; 12.5 ppm spray): 0 (0)
- GDM disease control rating ([4]; 50 ppm spray): 0 (0)
- GDM disease control rating ([4]; 200 ppm spray): 7 (90-95)
- TEB disease control rating ([5]; 12.5 ppm spray): 0 (0)
- TEB disease control rating ([5]; 50 ppm spray): 2 (15-29)
- TEB disease control rating ([5]; 200 ppm spray): 4 (45-59)
- PB disease control rating ([6]; 12.5 ppm spray): 0 (0)
- PB disease control rating ([6]; 50 ppm spray): 0 (0)
- PB disease control rating ([6]; 200 ppm spray): 6 (75-89)
- AS disease control rating ([7]; 12.5 ppm spray): 4 (45-59)
- AS disease control rating ([7]; 50 ppm spray): 4 (45-59)
- AS disease control rating ([7]; 200 ppm spray): 5 (60-74)
- PYTHU inhibition of mycelial growth rating ([8]; 1 ppm): 0
- PYTHU inhibition of mycelial growth rating ([8]; 10 ppm): 1
- PYTHU inhibition of mycelial growth rating ([8]; 25 ppm): 5
- RHIZSO inhibition of mycelial growth rating ([9]; 1 ppm): 5
- RHIZSO inhibition of mycelial growth rating ([9]; 10 ppm): 5
- RHIZSO inhibition of mycelial growth rating ([9]; 25 ppm): 5
- SBC disease control rating ([10]; 12.5 ppm spray): 0 (0)
- SBC disease control rating ([10]; 50 ppm spray): 6 (75-89)
- SBC disease control rating ([10]; 200 ppm spray): 6 (75-89)
